Test results as given in patent US7507727B2, “Substituted quinobenzoxazine analogs and methods of using thereof” (Cylene Pharmaceuticals, Inc., priority 2003, dated 2009).

Molecular target: c-Myc template DNA (c-myc quadruplex)
Test: Quadruplex binding / stop assay (Taq polymerase arrest, capillary electrophoresis)
Conditions: read-out: S DATA; Table 1D, stop assay data

| IC50 [µM] | SMILES |
| --- | --- |
| 1.75 | C[C@H](O)CNc1c(F)cc2c(=O)c(C(=O)NCCC3CCCN3C)cn3c2c1Oc1cc2ccccc2cc1-3 (some centres unmarked) [compound 1683] |
| > 15 | CN1CCN(C(=O)c2cn3c4c(c(NCCN5CCOCC5)c(F)cc4c2=O)Oc2ccccc2-3)CC1 [compound 1614] |
| > 15 | NC1CCN(c2c(F)cc3c(=O)c(C(=O)NCCN4CCOCC4)cn4c3c2Oc2ccccc2-4)C1 (centres unmarked) [compound 1620] |
| > 15 | CC1(C)CC(NC(=O)c2cn3c4c(c(NCCCN5CCOCC5)ccc4c2=O)Oc2cc4ccccc4cc2-3)CC(C)(C)N1 [compound 1531] |
| 11 | O=C(NCCN1CCCC1)c1cn2c3c(c(N4CCC(c5cnccn5)C4)c(F)cc3c1=O)Oc1ccccc1-2 (centres unmarked) [compound 1724] |
| 1.75 | COc1ccc2[nH]cc(CCNC(=O)c3cn4c5c(c(N6CCC(N)C6)c(F)cc5c3=O)Oc3cc5ccccc5cc3-4)c2c1 (centres unmarked) [compound 1699] |
| > 15 | CN1CCN(CCCNC(=O)c2cn3c4c(c(NCCN5CCOCC5)c(F)cc4c2=O)Oc2ccccc2-3)CC1 [compound 1606] |
| 10 | CCC(=O)N1CCN(c2c(F)cc3c(=O)c(C(=O)NCCN4CCCC4)cn4c3c2Oc2cc(Cl)ccc2-4)CC1 [compound 1822] |
| > 15 | NC1CCN(c2c(F)cc3c(=O)c(C(=O)NCC(O)c4ccccc4)cn4c3c2Oc2cc3ccccc3cc2-4)C1 (centres unmarked) [compound 1703] |
| 9.4 | O=C(NCCN1CCCC1)c1cn2c3c(c(N4CCN(C(=O)N5CCC[C@H]5C(=O)C(F)(F)F)CC4)c(F)cc3c1=O)Oc1cc(Cl)ccc1-2 [compound 1824] |
| > 15 | CN1CCCC1CCNC(=O)c1cn2c3c(c(N(C)C4CCCCNC4)c(F)cc3c1=O)Oc1cc3ccccc3cc1-2 (centres unmarked) [compound 1510] |
| 0.75 | CN(C)CCCCNc1ccc2c(=O)c(C(=O)NCCN3CCOCC3)cn3c2c1Oc1cc2ccccc2cc1-3 [compound 1545] |
| > 15 | CN(C)c1ccccc1CNC(=O)c1cn2c3c(c(N4CCC(N)C4)c(F)cc3c1=O)Oc1cc3ccccc3cc1-2 (centres unmarked) [compound 1715] |
| > 15 | CC1(C)CC(NC(=O)c2cn3c4c(c(NCCN5CCOCC5)ccc4c2=O)Oc2cc4ccccc4cc2-3)CC(C)(C)N1 [compound 1549] |
| > 15 | CN1CCCC1CCNC(=O)c1cn2c3c(c(SCCc4cnccn4)c(F)cc3c1=O)Oc1ccc(Cl)cc1-2 (centres unmarked) [compound 1787] |
| 1.75 | CCCCOCCCNc1c(F)cc2c(=O)c(C(=O)NCCC3CCCN3C)cn3c2c1Oc1cc2ccccc2cc1-3 (centres unmarked) [compound 1659] |
| 0.75 | CCOC(CCCNc1c(F)cc2c(=O)c(C(=O)NCCC3CCCN3C)cn3c2c1Oc1cc2ccccc2cc1-3)OCC (centres unmarked) [compound 1674] |

Same assay, conditions: read-out: Stop Data c-Myc μM; concentration at which 50% of the DNA was arrested (arrested:full-length 1:1)

| IC50 [µM] | SMILES |
| --- | --- |
| 1.75 | O=C(NCCCN1CCOCC1)c1cn2c3c(c(NCCN4CCCC4)c(F)cc3c1=O)Oc1c-2ccc2ccccc12 [compound 137] |
| 0.53 | CN(C)CCCCNc1c(F)cc2c(=O)c(C(=O)NCCCN3CCN(C)CC3)cn3c2c1Oc1c-3ccc2ccccc12 [compound 478] |
| 1.75 | CN1CCCC1CCNc1c(F)cc2c(=O)c(C(=O)NCCN3CCOCC3)cn3c2c1Oc1cc2c(cc1-3)oc1ccccc12 (centres unmarked) [compound 158] |
| 1.75 | CC(CNc1c(F)cc2c(=O)c(C(=O)NCCC3CCCN3C)cn3c2c1Oc1cc2ccccc2cc1-3)c1ccccc1 (centres unmarked) [compound 285] |
| 1.75 | Nc1ccc(CCNC(=O)c2cn3c4c(c(N5CCC(N)C5)c(F)cc4c2=O)Oc2cc4ccccc4cc2-3)cc1 (centres unmarked) [compound 193] |
| 1.75 | NC1CCN(c2c(F)cc3c(=O)c(C(=O)N4CCCCC4CN4CCCC4)cn4c3c2Oc2cc3ccccc3cc2-4)C1 (centres unmarked) [compound 249] |
| 1.75 | CN(C)CCCCNC(=O)c1cn2c3c(c(NCCC4CCCN4C)c(F)cc3c1=O)Oc1cc3ccccc3cc1-2 (centres unmarked) [compound 125] |
| 0.9 | CN(C)CCCCNC(=O)c1cn2c3cc4c(=O)c5ccccc5c(=O)c4cc3oc3c(NCCC4CCCN4C)c(F)cc(c1=O)c32 (centres unmarked) [compound 347] |
| 2.5 | O=C(NCCN1CCCC1)c1cn2c3c(c(NCCN4CCCC4)c(F)cc3c1=O)Oc1cc3ccccc3cc1-2 [compound 74] |
| 0.75 | CN1CCN(CCCNc2c(F)cc3c(=O)c(C(=O)NCCC4CCCN4C)cn4c3c2Oc2cc3ccccc3cc2-4)CC1 (centres unmarked) [compound 394] |
| 0.9 | CN1CCCC1CCNC(=O)c1cn2c3cc4c(=O)c5ccccc5c(=O)c4cc3oc3c(NCCC4CCCN4C)c(F)cc(c1=O)c32 (centres unmarked) [compound 346] |
| 1.75 | CN1CCCC1CCNC(=O)c1cn2c3c(c(NCCC4CCCN4C)c(F)cc3c1=O)Oc1cc3ccccc3cc1-2 (centres unmarked) [compound 124] |
| 1.75 | CN(C)/C=N/CCCCNC(=O)c1cn2c3c(c(N4CC[C@@H](NC(=O)OC(C)(C)C)C4)c(F)cc3c1=O)Oc1cc3ccccc3cc1-2 [compound 212] |
| 2.5 | COc1cccc(CCNc2c(F)cc3c(=O)c(C(=O)NCCC4CCCN4C)cn4c3c2Oc2cc3ccccc3cc2-4)c1OC (centres unmarked) [compound 100] |
| 1.75 | CC(C)(C)OC(=O)N[C@@H]1CCN(c2c(F)cc3c(=O)c(C(=O)NCCN4CCCC4)cn4c3c2Oc2c-4ccc3ccccc23)C1 [compound 133] |
| 0.75 | CN1CCN(CCCNC(=O)c2cn3c4c(c(N5CCC(N)C5)c(F)cc4c2=O)Oc2ccccc2-3)CC1 (centres unmarked) [compound 459] |
| 1.75 | CN1CCCC1CCNC(=O)c1cn2c3c(c(NCCCO)c(F)cc3c1=O)Oc1cc3ccccc3cc1-2 (centres unmarked) [compound 293] |
| 1.75 | O=C(NCCCN1CCOCC1)c1cn2c3cc4c(cc3oc3c(NCCN5CCOCC5)c(F)cc(c1=O)c32)c(=O)c1ccccc14 [compound 205] |
| 0.73 | CN1CCC[C@H]1CCNC(=O)c1cn2c3c(c(N4CCC(c5cnccn5)C4)c(F)cc3c1=O)Oc1cc3ccccc3cc1-2 (some centres unmarked) [compound 469] |
| 2.5 | CN1CCCC1CCNc1c(F)cc2c(=O)c(C(=O)N3CC[C@@H](NC(=O)OC(C)(C)C)C3)cn3c2c1Oc1cc2ccccc2cc1-3 (some centres unmarked) [compound 68] |
| 1.75 | CN1CCN(CCCNC(=O)c2cn3c4cc5c(=O)c6ccccc6c(=O)c5cc4oc4c(NCCC5CCCN5C)c(F)cc(c2=O)c43)CC1 (centres unmarked) [compound 165] |
| 0.75 | CN(C)CCCCNc1ccc2c(=O)c(C(=O)NCCN3CCOCC3)cn3c2c1Oc1cc2ccccc2cc1-3 [compound 453] |
| 1.75 | CN1CCN(c2c(F)cc3c(=O)c(C(=O)NCCCN4CCOCC4)cn4c5cc6c(=O)c7ccccc7c(=O)c6cc5oc2c34)CC1 [compound 172] |
| 1.75 | CN1CCCC1CCNc1ccc2c(=O)c(C(=O)NCCCN3CCOCC3)cn3c2c1Oc1cc2ccccc2cc1-3 (centres unmarked) [compound 269] |
| 1.75 | O=C(CNCCN1CCCC1)N[C@@H]1CCN(c2c(F)cc3c(=O)c(C(=O)N4CCOCC4)cn4c3c2Oc2cc3c(cc2-4)oc2ccccc23)C1 [compound 180] |
| 2.5 | CN(C)CCCCNC(=O)c1cn2c3c(c(NCCCN4CCOCC4)c(F)cc3c1=O)Oc1cc3ccccc3cc1-2 [compound 52] |
| 1.75 | CN1CCCC1CCNC(=O)c1cn2c3c(c(NCC(O)CO)c(F)cc3c1=O)Oc1cc3ccccc3cc1-2 (centres unmarked) [compound 292] |
| 1 | CCCCN1CCC(CNc2c(F)cc3c(=O)c(C(=O)NCCC4CCCN4C)cn4c3c2Oc2cc3ccccc3cc2-4)CC1 (centres unmarked) [compound 336] |
| 0.25 | CN(C)CCCCNC(=O)c1cn2c3c(c(N4CC[C@@H](N)C4)c(F)cc3c1=O)Oc1cc3ccccc3cc1-2 [compound 567] |
| 0.75 | CN(C)CCCCNc1c(F)cc2c(=O)c(C(=O)O)cn3c4cc5oc6cc(N)ccc6[nH]c5cc4oc1c23 [compound 21] |
